Peptide text beside a SMILES is read from it. * marks the point of attachment. Cbz = O=C(OCc1ccccc1)*; OtBu = CC(C)(C)O*
What was measured:
γ-secretase = assay: In vitro γ-secretase assay with isolated membranes; format: biochemical; conditions: 37° C.
Method: FIG. 3: Effect of compounds on NotchΔE-EGFP, APP and Klotho trafficking and processing. a) HEK293 stably expressing APPswe or Klotho (KI) were incubated with DAPT or compounds (10 μM) for 16 h. Media were collected, cells lysed and both assayed by Western blotting using indicated antibodies. m, mature; im, immature; s, shedded ectodomain; CTF, C-terminal fragment. b) Membranes from HeLa-NotchΔE-EGFP and APPswe cells were isolated and subjected to a γ-secretase in vitro assay in the presence of DAPT or compounds as indicated. NICD and AICD were detected by Western Blotting using antibodies against the C-terminus of APP (top) or antibodies specific for NICD (bottom). c) Quantitation from 5 independent experiments.
To test whether FLI-06 affected other membrane proteins, Klotho, a type I protein processed like APP and Notch^20, was analyzed. […] To analyze γ-secretase activity, in vitro assays using isolated membranes were performed (FIG. 3b, c). Production of NICD-EGFP and AICD (APP intracellular domain) were assayed. Both were produced in vitro at 37° C. but not at 4° C., and their production was inhibited by DAPT.
For assaying AICD formation, membranes of HEK293 cells stably expressing APP with the Swedish mutation were isolated and incubated for 4 h at 37° C. according to Sastre et al.^52. For assaying NICD formation, membranes from HeLa NotchΔE-EGFP cells were mixed with membranes from HeLa NotchΔE-EGFP cells that were pre-treated with 10 μM DAPT overnight to enrich substrate. After incubation samples were loaded onto either 8% SDS-PA gels (NICD) or 10-20% Tris-Tricine gels (AICD), blotted and probed with cleaved-Notch antibody or antibody 6687 against APP C-terminus^53. Chemoluminescence was quantified on a LAS-4000 (Fuji) with MultiGauge software.

NotchΔE-EGFP [1] = assay: Fluorescence microscopy of reporter localization in HeLa NotchΔE-EGFP cells; format: cell-based; conditions: for localization of NotchΔE-EGFP/NICD-EGFP: 10 μM compound, 24 h; for toxicity in cells: inferred from reversibility after wash-out
Method: FIG. 10: Phenotypes of Notch inhibitors are fully reversible. HeLa NotchΔE-EGFP cells plated in LabTek coverglass were incubated for 18 h with 10 iM of indicated compounds, washed and incubated for indicated times in cell culture medium. Cells were imaged by live-microscopy. […] Scalebar, 10 im.
For a detailed analysis of subcelluar distribution of NotchΔE/NICD the resolution of the HCS images was not sufficient. Therefore, the reporter cell line was plated on coverslips and incubated with 10 μM of individual compounds from the final hit list. After 24 h the localization of NotchΔE-EGFP/NICD-EGFP was determined by fluorescence microscopy. […] (FIG. 8).
Immunofluorescence stainings were made using standard procedures^55. Imaging was performed on a Zeiss Axiovert200 or an Axio Imager, using 63× 1.4NA objectives and Zeiss Axiovision software. For live-imaging cells were plated on Lab-Tek chambered coverglass (Thermo-Fisher). Images were assembled and processed using Adobe Photoshop. For displaying weakly stained ER-tubules/sheets non-linear changes in gamma-settings were used.

NotchΔE-EGFP [2] = assay: Reporter localization in U2OS cells stably expressing NotchΔE-EGFP; format: cell-based; conditions: 10 iM, 18 h
Method: FIG. 9: Compound effects are not cell-type specific. U2OS cells stably expressing NotchΔE-EGFP were incubated for 18 h with 10 iM compounds as indicated, fixed and imaged by fluorescence microscopy. […] Arrows, plasma membrane; arrowheads, ER. Asterisks indicate cells where the ER collapsed to large aggregates. Scalebar, 10 im.

[3] = system: endogenous Notch signaling; assay: Luciferase Notch reporter assay in C2C12 cells transfected with Delta; format: cell-based; conditions: 16 h
Method: Cells were incubated with DAPT or 10 μM of the indicated compounds (50 μM in case of FLI-15 and -20) and after 16 h a luciferase assay was performed. […] Changes in relative gene expression levels (fold change) relative to the expression levels in DMSO controls are represented as the mean+/−SD, asterisks indicate p<0.01. Each measurement was taken from two independent samples. Each reaction was measured in triplicate. Changes in the relative expression of ngn1 were standardized to the expression of the housekeeping gene ef1a at 20 hpf. c) ISH with riboprobes specific for ngn1 was performed on dechorionated stage 4 hpf zebrafish embryos. Anterior is to the left, dorsal to the top. Magnifications of the somite region (small box) are shown. Arrows indicate larger ngn1 clusters or stronger ngn1 staining. s, sensory neurons; i, intermediate neurons; m, motor neurons.
We wanted to test whether the results obtained with the NotchΔE-EGFP construct are relevant for endogenous Notch signaling. Therefore we made use of C2C12 cells, a well established model for muscle development that expresses endogenous Notch^21,22. After stimulating endogenous Notch signaling by transfecting the Notch ligand Delta, Notch activity was measured by a luciferase assay using a Notch reporter^15 in the presence or absence of compounds (FIG. 4a). […] Next, we tested whether selected compounds would affect Notch signaling in vivo. […] Compounds were added to dechorionated stage 4 hpf zebrafish embryos and the effects were analyzed after 24 h by morphological inspection of somite formation. Phenotypes were ranked to four categories, normal somites, mild somite defects, strong somite defects and developmental delay. […] As an additional parameter we decided to analyze Notch-dependent genes involved in neurogenesis. Primary neurogenesis in zebrafish involves the selection of neuroblasts (repressed by Notch) from proneural clusters (Notch expressing cells), a process regulated in a negative manner by Notch-dependent lateral inhibition^25. Accordingly, neuroblast cells that express the neuronal specification factor neurogenin (ngn1^26) became more abundant when Notch signaling was impaired, for instance upon DAPT treatment^23,27. qPCR analyses on mRNA extracted from equivalent sets of embryos was performed for ngn1 expression (FIG. 4b). […] To confirm the data obtained by qPCR, whole-mount in-situ hybridizations (ISH) using an ngn1 specific riboprobe were performed (FIG. 4c, FIG. 11c). […] Taken together, FLI-06, -14, -15, -19 and -20 inhibited endogenous Notch signaling in vitro and in vivo, corroborating the NotchΔE-EGFP reporter data.
Endogenous Notch signaling in C2C12 was determined by a luciferase assay using a 12xCSL-luciferase reporter and transfected Delta as described before^15.

NotchΔE-EGFP [4] = assay: Western blot of NotchΔE-EGFP processing in HeLa NotchΔE-EGFP lysates; format: cell-based; conditions: 10 μM, 18 h
Method: FIG. 2: Selected compounds from final hit list show distinct phenotypes. Hela NotchΔE-EGFP cells were incubated with compounds (10 μM) for 18 h, fixed and analyzed by fluorescence microscopy (a) or lysed, separated by SDS-PAGE, blotted and probed with antibodies against GFP and NICD (b). Tubulin served as loading control. c) Quantitation of NotchΔE-EGFP accumulation and NICD production from 3-4 experiments as shown in (b). […] Arrows, plasma membrane; scalebar, 10 μm.
Next, lysates of HeLa NotchΔE-EGFP cells treated with compounds were analyzed for processing of NotchΔE-EGFP by Western blot using antibodies specific for EGFP and NICD (FIG. 2b, c). The GFP antibody detected both the uncleaved reporter NotchΔE-EGFP and the γ-secretase product NICD-EGFP, whereas the NICD-specific antibody specifically detected cleaved NICD-EGFP. […] The observed effects were not cell type specific, as they were also apparent in U2OS cells stably expressing NotchΔE-EGFP (FIG. 9).

Row | SMILES | NICD-EGFP and AICD production in isolated membranes (γ-secretase) | localization of NotchΔE-EGFP/NICD-EGFP (NotchΔE-EGFP [1]) | toxicity in cells (NotchΔE-EGFP [1]) | localization of NotchΔE-EGFP in U2OS cells (NotchΔE-EGFP [2]) | inhibition of endogenous Notch signaling ([3]; 10 μM) | NICD-EGFP production (NotchΔE-EGFP [4]) | NotchΔE-EGFP level (GFP antibody) (NotchΔE-EGFP [4]) | inhibition of endogenous Notch signaling ([3]; 50 μM)
1 | Cn1c2ccccc2c2c(C(=O)N3CCN(Cc4ccc5c(c4)OCO5)CC3)cn(C3CCCC3)c(=O)c21 [FLI-14] | did not affect γ-secretase in isolated membranes | accumulation of the reporter at the PM and in perinuclear Golgi-like structures | not acutely toxic in cells | PM accumulation similar to DAPT | strongly | decreased NICD-EGFP production | accumulation of NotchΔE-EGFP | –
2 | CC(C)CC(NC(=O)C(Cc1ccccc1)NC(=O)C1CCCN1C(=O)OCc1ccccc1)C(=O)OC(C)(C)C (stereo not drawn) [FLI-19] (Cbz-Pro-Phe-Leu-OtBu; configuration not given here) | did not affect γ-secretase in isolated membranes | accumulation of the reporter at the PM and in perinuclear Golgi-like structures | not acutely toxic in cells | PM accumulation similar to DAPT | considerably | – | accumulation of NotchΔE-EGFP | –
3 | CC1=C(C(=O)OC2CCCCC2)C(c2ccc([N+](=O)[O-])cc2)C2=C(CC(C)(C)CC2=O)N1 (stereo not drawn) [FLI-06, Cyclohexyl 4-(4′-nitrophenyl)-2,7,7-trimethyl-5-oxo-1,4,5,6,7,8-hexahydroquinoline-3-carboxylate] | did not affect γ-secretase in isolated membranes | reduced nuclear fluorescence and localization in intracellular membranes | not acutely toxic in cells | ER accumulation of the reporter and in some cells aggregation | strongly | decreased NICD-EGFP production | accumulation of NotchΔE-EGFP | –
4 | CC(=O)Nc1ccc2nc(NC(=O)CC34CC5CC(CC(C5)C3)C4)sc2c1 [FLI-20] | clearly reduced NICD-EGFP and AICD production | accumulation of the reporter at the PM and in perinuclear Golgi-like structures | not acutely toxic in cells | PM accumulation similar to DAPT | hardly affected Notch signaling | decreased NICD-EGFP production | accumulation of NotchΔE-EGFP | remarkably
5 | Cc1ccc(NC(=O)C(NS(=O)(=O)c2cccc3nsnc23)C(C)C)nc1 (stereo not drawn) [FLI-15] | clearly reduced NICD-EGFP and AICD production | accumulation of the reporter at the PM and in perinuclear Golgi-like structures | not acutely toxic in cells | PM accumulation similar to DAPT | hardly affected Notch signaling | decreased NICD-EGFP production | accumulation of NotchΔE-EGFP | remarkably
